Earlier results on one compound are cited in patent US12691091B2, “Compositions comprising cetylated fatty acids for use in the treatment of gastric mucosa, diabetes and high blood glucose levels” (PHARMANUTRA S.P.A., priority 2019, dated 2026).

For this data set the following is noted: European Union food additive E319.

On to `CC(C)(C)c1cc(O)ccc1O` [TBHQ, Tert-butyl-hydroquinone], for which the “acceptable daily intake (ADI)” value is listed as 0.7 mg/kg of body weight.
